SMILES strings stand for the structures. Some results are limits rather than exact numbers.

Consider 27 molecules from patent US11897862B2 (Gilead Sciences, Inc., priority 2022, dated 2024).

The target of one assay is IKZF2 (Homo sapiens, UniProt Q96SW2+Q9UKS7). As to the kind of experiment: HEK293 HiBiT in vitro degradation of IKZF2. The class given is cell-based. On the set-up: expressed in transfected cells. As to conditions: for DC50 / IKZF2 Dmax: HEK293 HiBiT; for DC50: 18-24 hr incubation, normalized to DMSO control, read-out: IKZF2 EC50; for IKZF2 Dmax / Dmax: maximum degradation at the highest concentration tested; for Dmax: HEK293, HEK293 HiBiT. The method, then:
(§1) In vitro degradation of IKZF1, IKZF2, and SALL4 was measured using HiBiT protein tagging and detection technology (Promega).
(§2) HiBit technology was used to develop the quantitative assays to measure the cellular IKZFs level by tagging an 11 amino acid HiBit peptides […] to the protein of interest. Reporter plasmids were generated by fusing a linker sequence ([…]) followed by the HiBit tag at the C-terminus of IKZF1, IKZF2, and SALL4. The fusion fragments were subsequently cloned into pcDNA5 pcDNA™5/FRT/TO plasmids (Thermo Fisher, cat #V652020) downstream of the tetracycline operator. The resulting plasmids were co-transfected with pOG44 Flp-Recombinase Expression Vector (Thermo Fisher, cat #V600520) into Flp-In™ T-REx HEK293 line (Thermo Fisher, cat #R78077) and a stable cell pool was selected by adding 100 µg/ml of Hygromycin (Thermo Fisher, cat #10687010). The reporter cell enabled Tet-On inducible reporter expression from a single copy of the integrated gene.
(§3) On Day 1, Cells were grown to ˜80% confluency in tissue culture medium (DMEM Glutamax (Gibco10569), 10% Tet free FBS (Takara 631106), and PenStrep Glutamin (Gibco 10378)) in tissue culture flasks. Doxycycline was then added to a final concentration of […] to induce reporter expression at 37° C. overnight.
(§4) On Day 2, 125 nL of serially-diluted solution of testing compounds were dispensed into 384-well white solid assay plates via ECHO acoustic liquid handler. Cells were lifted by 0.25% Trypsin (Gibco 25200) then pelleted by centrifugation (Beckman Avanti J-E) at 500×g for 5 min. Cell pellets were resuspended in TC medium at the concentration of 3e5/mL and 25 μL of cell suspension were added into each well of compound-spotted plates. The plates were returned to a 37° C. incubator overnight (18-24 hr).
(§5) On Day 3, assay plates were removed from the tissue culture incubator and 25 μL of Nano-Glo lytic detection system (Promega, cat #N3030) was added to each well. Plates were incubated at r.t. for 3 min with shaking, and luminescence was read using an Envision reader (Perkin Elmer).
(§6) To assess the IKZF1, IKZF2, and SALL4 degrader potential of exemplified compounds of this disclosure and certain Reference Compounds EC50 and Dmax values were determined for the compounds of Examples 1 to 383 and Reference Compounds A-1, B-1, B-2, B-3, B-4, and C-1 in the HiBiT assays. Asterisks (*) indicate examples for which the data shown represents an average of n≥3.
On the technique in general: HiBiT is a short tag that completes a luciferase, so light tracks the accessible tagged protein.

In a further assay the target is T1, IKZF1 (Homo sapiens, UniProt Q13422+Q96SW2).
T1 construct: expressed in transfected cells
Briefly: HEK293 HiBiT in vitro degradation of IKZF1. The conditions noted are these: for DC50 / IKZF1 Dmax: HEK293 HiBiT; for DC50: 18-24 hr incubation, normalized to DMSO control, read-out: IKZF1 EC50; for Dmax: HEK293, HEK293 HiBiT; for Dmax / IKZF1 Dmax: maximum degradation at the highest concentration tested. The class given is cell-based. The procedure: as §1, §2, §3, §4, §5, §6

T1 sequence (Q13422 whole entry): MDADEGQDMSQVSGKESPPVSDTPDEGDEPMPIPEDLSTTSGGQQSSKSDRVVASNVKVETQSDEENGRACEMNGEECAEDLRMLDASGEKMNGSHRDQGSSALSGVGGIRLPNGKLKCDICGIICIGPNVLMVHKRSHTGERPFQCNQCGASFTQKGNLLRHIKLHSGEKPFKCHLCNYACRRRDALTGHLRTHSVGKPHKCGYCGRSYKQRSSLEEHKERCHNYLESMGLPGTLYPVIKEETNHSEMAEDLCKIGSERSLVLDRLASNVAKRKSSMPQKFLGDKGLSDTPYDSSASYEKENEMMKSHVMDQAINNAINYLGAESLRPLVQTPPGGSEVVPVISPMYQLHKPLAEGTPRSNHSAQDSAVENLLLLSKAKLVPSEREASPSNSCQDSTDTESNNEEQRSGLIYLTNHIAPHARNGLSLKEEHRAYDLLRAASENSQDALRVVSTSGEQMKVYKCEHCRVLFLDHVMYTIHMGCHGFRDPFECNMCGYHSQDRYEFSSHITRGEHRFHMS
T1 sequence (Q96SW2 whole entry): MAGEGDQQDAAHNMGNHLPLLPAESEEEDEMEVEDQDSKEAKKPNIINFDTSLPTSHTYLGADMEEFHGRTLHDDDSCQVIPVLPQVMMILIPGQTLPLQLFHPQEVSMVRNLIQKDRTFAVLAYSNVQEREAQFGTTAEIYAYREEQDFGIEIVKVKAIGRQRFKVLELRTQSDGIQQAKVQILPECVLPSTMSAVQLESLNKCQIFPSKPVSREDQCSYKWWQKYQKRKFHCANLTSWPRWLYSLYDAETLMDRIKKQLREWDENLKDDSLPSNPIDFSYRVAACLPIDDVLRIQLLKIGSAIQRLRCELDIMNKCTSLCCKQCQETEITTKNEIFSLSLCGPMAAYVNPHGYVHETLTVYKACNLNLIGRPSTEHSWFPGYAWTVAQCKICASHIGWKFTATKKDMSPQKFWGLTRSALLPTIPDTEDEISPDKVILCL
T1 sequence (Q16531 whole entry partner): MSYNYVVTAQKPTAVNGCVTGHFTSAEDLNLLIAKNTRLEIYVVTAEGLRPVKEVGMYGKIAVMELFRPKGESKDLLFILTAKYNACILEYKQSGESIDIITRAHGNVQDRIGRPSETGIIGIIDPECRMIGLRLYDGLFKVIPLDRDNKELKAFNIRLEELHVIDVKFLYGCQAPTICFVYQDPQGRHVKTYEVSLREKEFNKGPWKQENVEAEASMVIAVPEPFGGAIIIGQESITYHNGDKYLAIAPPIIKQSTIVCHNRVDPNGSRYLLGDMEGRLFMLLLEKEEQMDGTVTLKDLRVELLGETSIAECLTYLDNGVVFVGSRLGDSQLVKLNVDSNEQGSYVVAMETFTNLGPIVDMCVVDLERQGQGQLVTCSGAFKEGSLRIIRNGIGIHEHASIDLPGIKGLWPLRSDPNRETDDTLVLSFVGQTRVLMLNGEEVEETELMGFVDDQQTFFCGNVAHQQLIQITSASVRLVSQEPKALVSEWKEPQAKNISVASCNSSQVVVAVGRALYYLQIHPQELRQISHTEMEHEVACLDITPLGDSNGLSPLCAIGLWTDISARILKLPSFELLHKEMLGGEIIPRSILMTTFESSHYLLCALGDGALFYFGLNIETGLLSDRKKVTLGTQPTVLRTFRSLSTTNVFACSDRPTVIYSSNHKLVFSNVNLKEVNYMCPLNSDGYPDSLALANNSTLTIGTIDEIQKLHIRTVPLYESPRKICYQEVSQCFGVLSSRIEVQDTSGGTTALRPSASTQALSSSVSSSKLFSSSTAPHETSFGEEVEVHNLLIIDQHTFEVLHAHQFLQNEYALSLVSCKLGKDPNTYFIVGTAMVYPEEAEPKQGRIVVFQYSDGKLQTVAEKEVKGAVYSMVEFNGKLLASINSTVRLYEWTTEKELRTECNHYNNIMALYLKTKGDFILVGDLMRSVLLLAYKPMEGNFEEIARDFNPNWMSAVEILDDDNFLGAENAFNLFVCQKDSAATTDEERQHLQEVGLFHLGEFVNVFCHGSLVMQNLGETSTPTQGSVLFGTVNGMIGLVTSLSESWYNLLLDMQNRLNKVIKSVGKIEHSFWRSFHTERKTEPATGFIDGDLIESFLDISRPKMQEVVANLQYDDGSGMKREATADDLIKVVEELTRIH
Sequence of IKZF2 (Q9UKS7 1-500 isoform Q9UKS7-2): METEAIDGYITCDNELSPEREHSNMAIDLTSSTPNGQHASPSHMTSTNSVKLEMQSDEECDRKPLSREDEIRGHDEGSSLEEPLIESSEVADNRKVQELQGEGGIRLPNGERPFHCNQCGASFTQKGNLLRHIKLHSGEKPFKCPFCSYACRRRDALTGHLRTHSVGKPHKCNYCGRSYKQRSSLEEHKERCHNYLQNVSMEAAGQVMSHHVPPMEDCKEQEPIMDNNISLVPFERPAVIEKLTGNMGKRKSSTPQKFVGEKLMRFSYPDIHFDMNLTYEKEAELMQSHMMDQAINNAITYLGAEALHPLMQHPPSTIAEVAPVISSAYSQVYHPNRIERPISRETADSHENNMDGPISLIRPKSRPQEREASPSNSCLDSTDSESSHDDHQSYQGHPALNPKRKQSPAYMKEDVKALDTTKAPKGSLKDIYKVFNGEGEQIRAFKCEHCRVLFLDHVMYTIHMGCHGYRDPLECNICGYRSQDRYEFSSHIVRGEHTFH
Sequence of IKZF2 (Q96SW2 whole entry): as the sequence (Q96SW2 whole entry) above
Sequence of IKZF2 (Q16531 whole entry partner): as the sequence (Q16531 whole entry partner) above

For the molecule `CC(N[C@H]1CCCC[C@@H]1Cc1ccc2c(c1)CN(C1CCC(=O)NC1=O)C2=O)C1(C#N)CC1` (single isomer, unassigned) [Example 255], the DC50 on IKZF2 is 32 nM; at IKZF1 it was more than 1000 nM. For the same molecule, the “IKZF2 Dmax” value at IKZF2 is reported as 87%.
For `CC1(C)CCC(N[C@H]2CCCO[C@@H]2Cc2ccc3c(c2F)CN(C2CCC(=O)NC2=O)C3=O)C1` (single isomer, unassigned) [Example 258], the Dmax (commonly the greatest extent of degradation seen) on IKZF2 amounted to 97%; at IKZF1 it was 30%. The DC50 is 4 nM at IKZF2 and 78 nM on IKZF1.
Consider `CC1(C)CCC(N[C@H]2CCCO[C@@H]2Cc2ccc3c(c2F)CN(C2CCC(=O)NC2=O)C3=O)C1` (single isomer, unassigned) [Example 259], for which, at IKZF2, the DC50 is 11 nM and the “IKZF2 Dmax” value turned out to be 96%. On IKZF1, the DC50 was determined as 68 nM and the “IKZF1 Dmax” value was 25%.
`O=C1CCC(N2Cc3cc(C[C@H]4CCCC[C@@H]4NC4CCCOC4)ccc3C2=O)C(=O)N1` (single isomer, unassigned) [Example 260]: at IKZF2, the Dmax was found to be 96% and the DC50 amounted to 5 nM. The DC50 at IKZF1 is more than 1000 nM.
As for `O=C1CCC(N2Cc3cc(C[C@H]4CCCC[C@@H]4NC4CCCOC4)ccc3C2=O)C(=O)N1` (single isomer, unassigned) [Example 261], on IKZF2, the DC50 is 6 nM and the “IKZF2 Dmax” value was 96%. The DC50 at IKZF1 is more than 1000 nM.
Turning to `O=C1CCC(N2Cc3c(ccc(C[C@H]4OCCC[C@@H]4NC4CCCOC4)c3F)C2=O)C(=O)N1` (single isomer, unassigned) [Example 262], on IKZF2, the Dmax amounted to 85% and the DC50 is 72 nM. Also, the DC50 at IKZF1 is more than 1000 nM.
As for `O=C1CCC(N2Cc3c(ccc(C[C@H]4OCCC[C@@H]4NC4CCCOC4)c3F)C2=O)C(=O)N1` (single isomer, unassigned) [Example 263], on IKZF2, the DC50 was 95 nM and the “IKZF2 Dmax” value was 85%. Besides, the DC50 on IKZF1 was more than 1000 nM.
Turning to `COCC1CCC(N[C@H]2CCCO[C@@H]2Cc2ccc3c(c2F)CN(C2CCC(=O)NC2=O)C3=O)CC1` (single isomer, unassigned) [Example 264], at IKZF2, the Dmax was 96%. Further, the DC50 at IKZF2 was 6 nM; at IKZF1 it was more than 1000 nM.
Regarding `N#CC1CCC(N[C@H]2CCCC[C@@H]2Cc2ccc3c(c2)CN(C2CCC(=O)NC2=O)C3=O)CC1` (single isomer, unassigned) [Example 268], on IKZF2, the DC50 stood at 6 nM and the “IKZF2 Dmax” value is 98%. In addition, at IKZF1, the DC50 turned out to be 76 nM and the “IKZF1 Dmax” value is on record as 62%.
As to `N#CCC1CCC(N[C@H]2CCCC[C@@H]2Cc2ccc3c(c2)CN(C2CCC(=O)NC2=O)C3=O)CC1` (single isomer, unassigned) [Example 269], at IKZF2, the Dmax turned out to be 96% and the DC50 is 3 nM. For the same molecule, at IKZF1, the Dmax turned out to be 40% and the DC50 was found to be 266 nM.
With `N#CCC1CCC(N[C@H]2CCCC[C@@H]2Cc2ccc3c(c2)CN(C2CCC(=O)NC2=O)C3=O)CC1` (single isomer, unassigned) [Example 270], at IKZF2, the DC50 is 8 nM and the “IKZF2 Dmax” value came out at 98%. Besides, at IKZF1, the DC50 was 179 nM and the “IKZF1 Dmax” value was 22%.
In the case of `O=C1CCC(N2Cc3cc(C[C@H]4CCCC[C@@H]4NC4CCC5(CC4)CC5(F)F)ccc3C2=O)C(=O)N1` (single isomer, unassigned) [Example 271], at IKZF2, the Dmax came out at 98% and the DC50 was found to be 2 nM. At IKZF1, the Dmax stood at 44% and the DC50 stood at 45 nM.
`CC1(C)OCCC1N[C@H]1CCCC[C@@H]1Cc1ccc2c(c1)CN(C1CCC(=O)NC1=O)C2=O` (single isomer, unassigned) [Example 273]: at IKZF2, the Dmax turned out to be 93% and the DC50 worked out at 23 nM. In addition, the DC50 at IKZF1 is more than 1000 nM.
For the molecule `CC1(C)OCCC1N[C@H]1CCCC[C@@H]1Cc1ccc2c(c1)CN(C1CCC(=O)NC1=O)C2=O` (single isomer, unassigned) [Example 274], on IKZF2, the DC50 worked out at 12 nM and the “IKZF2 Dmax” value came out at 97%. In addition, on IKZF1, the Dmax stood at 35% and the DC50 was determined as 102 nM.
With `CC1(C)CCCC(N[C@H]2CCCC[C@@H]2Cc2ccc3c(c2)CN(C2CCC(=O)NC2=O)C3=O)C1` (single isomer, unassigned) [Example 275], on IKZF2, the Dmax turned out to be 96% and the DC50 came to 4 nM. Also, on IKZF1, the DC50 was more than 1000 nM.
On to `CC1(C)CCCC(N[C@H]2CCCC[C@@H]2Cc2ccc3c(c2)CN(C2CCC(=O)NC2=O)C3=O)C1` (single isomer, unassigned) [Example 276], for which the DC50 was 3 nM at IKZF2 and more than 1000 nM on IKZF1. The “IKZF2 Dmax” value at IKZF2 was 97%.
Regarding `COC1CCC(N[C@H]2CCCC[C@@H]2Cc2ccc3c(c2)CN(C2CCC(=O)NC2=O)C3=O)CC1` (single isomer, unassigned) [Example 278], on IKZF2, the DC50 was 4 nM and the “IKZF2 Dmax” value is 98%. At IKZF1, the DC50 is 125 nM and the “IKZF1 Dmax” value came to 37%.
As to `CC1CCC(N[C@H]2CCCC[C@@H]2Cc2ccc3c(c2)CN(C2CCC(=O)NC2=O)C3=O)CC1` (single isomer, unassigned) [Example 279], at IKZF2, the Dmax turned out to be 95% and the DC50 amounted to 3 nM. Also, on IKZF1, the Dmax was found to be 30% and the DC50 was 51 nM.
With `CC1CCC(N[C@H]2CCCC[C@@H]2Cc2ccc3c(c2)CN(C2CCC(=O)NC2=O)C3=O)CC1` (single isomer, unassigned) [Example 280], at IKZF2, the DC50 was determined as 3 nM and the “IKZF2 Dmax” value stood at 98%. At IKZF1, the DC50 turned out to be 70 nM and the “IKZF1 Dmax” value is 29%.
In the case of `O=C1CCC(N2Cc3c(ccc(C[C@H]4OCCC[C@@H]4NC4CCC(C(F)F)CC4)c3F)C2=O)C(=O)N1` (single isomer, unassigned) [Example 282], the Dmax on IKZF2 amounted to 95%. Further, the DC50 at IKZF2 was 7 nM; at IKZF1, more than 1000 nM.
The like results for `CC(C)OC1CCC(N[C@H]2CCCO[C@@H]2Cc2ccc3c(c2F)CN(C2CCC(=O)NC2=O)C3=O)CC1` (single isomer, unassigned) [Example 284] were, in that order, 97%, 5 nM and more than 1000 nM.
With `CC(C)OC1CCC(N[C@H]2CCCO[C@@H]2Cc2ccc3c(c2F)CN(C2CCC(=O)NC2=O)C3=O)CC1` (single isomer, unassigned) [Example 285], on IKZF2, the DC50 stood at 8 nM and the “IKZF2 Dmax” value worked out at 94%. At IKZF1, the Dmax is 37% and the DC50 was 124 nM.
For the molecule `O=C1CCC(N2Cc3cc(C[C@H]4CCCC[C@@H]4NC4CCC45COC5)ccc3C2=O)C(=O)N1` (single isomer, unassigned) [Example 286], on IKZF2, the Dmax was determined as 96% and the DC50 was determined as 27 nM. For the same molecule, at IKZF1, the Dmax worked out at 33% and the DC50 was 223 nM.
In the case of `CCC(C)N[C@H]1CCCO[C@@H]1Cc1ccc2c(c1F)CN(C1CCC(=O)NC1=O)C2=O` (single isomer, unassigned) [Example 292], at IKZF2, the Dmax is 94% and the DC50 worked out at 7 nM. Moreover, the DC50 on IKZF1 is more than 1000 nM.
For `CCC(C)N[C@H]1CCCO[C@@H]1Cc1ccc2c(c1F)CN(C1CCC(=O)NC1=O)C2=O` (single isomer, unassigned) [Example 293], at IKZF2, the DC50 came to 8 nM and the “IKZF2 Dmax” value is 94%. Besides, at IKZF1, the DC50 is more than 1000 nM.
Take `CCC(C)N[C@H]1CCCC[C@@H]1Cc1ccc2c(c1F)CN(C1CCC(=O)NC1=O)C2=O` (single isomer, unassigned) [Example 294]: at IKZF2, the Dmax is 97% and the DC50 is 2 nM. In addition, on IKZF1, the Dmax stood at 59% and the DC50 worked out at 912 nM.
For the molecule `CCC(C)N[C@H]1CCCC[C@@H]1Cc1ccc2c(c1F)CN(C1CCC(=O)NC1=O)C2=O` (single isomer, unassigned) [Example 295], on IKZF2, the DC50 was 1 nM and the “IKZF2 Dmax” value is 97%. In addition, at IKZF1, the DC50 was 283 nM and the “IKZF1 Dmax” value turned out to be 43%.
